Reference: patent publication US7812042B2, “Pharmaceutical compositions and therapeutic applications for the use of a novel vitamin B12 derivative, N-acetyl-L-cysteinylcobalamin” (priority 2006, dated 2010)
Several values for one entry are separate records, joined by “and”; a condition that tells them apart may be missing. Identical values can stand only once. Counter-ions that a name gives are not always drawn.

Legend:
SK-HEP-1 cells [1] = assay: NACCbl protection from homocysteine with Hsp32/Hsp70 inhibited by Sn(IX) protoporphyrin, quercitin or siRNA (MTS assay); assay type: cell-based, Human; settings: where named, NACCbl 30 μM pre-treatment two hours with/without Sn(IX)PP, quercetin, replicates 1-6, listed as Hcy
Text: siRNAs for human HO-1 were synthesised in 2′-deprotected, duplexed, desalted and purified form by Dharmacon Research Inc., published sequences from Zhang et al., (Zhang, Shan et al. 2004). Human Hsp70 primers were from proprietary sequences, and all control non-targeting primer sequences were also synthesised by Dharmacon Research Inc.
Transfection was optimised using a standard siControl Tox protocol. All transfection experiments included non-targeted siRNA.
Cells were trypsinized and plated into 12- or 96-well plates at cell density of 2×10^5, then incubated for 24 hours until adherent. Complexed siRNA and transfection agent at 100 nm was added directly to each experimental well. Plates were incubated at 37° C. for 32.5 hours for mRNA gene analysis experiments or 72 hours for protein analysis by Western Blot.
Complexed siRNA and transfection agent was added to each well of either 12- or 96-well plates. Cells were then trypsinized and added directly into each test well at cell density of 2×10^5. Plates were incubated at 37° C. for 32.5 hours for mRNA gene analysis experiments or 72 hours for protein analysis by Western Blot.
Hsp32 was inhibited using either Sn (IX) protoporhyrin or using an siRNA which specifically knocks out Hsp32. Hsp70 was inhibited using quercitin or using an siRNA which specifically knocks out Hsp70. In addition, two methods were used to inhibit both Hsp32 and Hsp70: chemically Sn (IX) protoporphyrin plus quercitin was used; and then, directly, a combination of the siRNA for both genes was used simultaneously.

SK-HEP-1 cells [2] = assay: Protection of endothelial cells from homocysteine-induced cell death (MTS assay, absorbance at 490 nm; includes comparison of NACCbl, NAC, cyanocobalamin+NAC, free thiols, other cobalamins, folate); assay type: cell-based, Human; settings: for Absorbance at 490 nm (n = 6): replicates Y1-Y6, listed as Hcy
Procedure: The effect of a constant concentration of NACCbl and GSCbl to protect cells against variable concentrations of homocysteine was assessed. […] Cell viability was determined by MTS® assay. Data shown in FIG. 4 are representative of means ±SE of 6 independent samples. FIG. 4 illustrates that NACCbl (▪) and GSCbl (▴) protect endothelial cells from the effect of homocysteine. […] Cell viability was determined by MTS® assay. […] There was a decrease in protection as homocysteine concentration increased, but there was still ˜60% survival at 50 μM homocysteine.
The data was normalized (log 2 and log 10) as shown in FIGS. 16 and 17 and Tables 16 and 17, respectively, below.

Hsp32 = Hsp32 gene expression in SK-HEP-1 cells (RT-PCR, densitometry); assay type: cell-based, Human; settings: homocysteine 30 μM, folate 30 μM (2 hr), Sn(IX) protoporphyrin 25 μM, quercitin 15 μM
Procedure: (§1) Cells were plated into 6-, 12-, or 24-well cell culture clusters, at 2×10^3, 2×10^5, or 1×10^5 cells per well and incubated until 90% confluent. Treatments were applied as above.
(§2) Following incubation, cells were subjected to mRNA extraction followed by cDNA synthesis for each sample under test. Polymerase chain reaction cDNA templates were prepared for simplex PCR protocol. PCR products were then visualized using a UV Transilluminator and images captured using a Kodak ID gel imaging system. Densitometry and statistical analysis was then performed on each gene expression band image using PSP® v 10.0 running under Windows XP®.
(§3) mRNA extraction was performed using the Quickprep micro mRNA Purification Kit. Following incubation of cells post-treatment, the media was removed from the cells, adherent cells were re-suspended in 0.4 ml extraction buffer and 0.8 ml elution buffer at 65° C. was added.
A reaction mixture was prepared in individual microcentrifuge tubes containing 2 cDNA synthesis beads, 32 μl of the mRNA solution and 1 μl of pd(N)6. This mixture was incubated at 37° C. in a water bath for 60 minutes. After incubation, 27 μl of RNase-free DEPC treated water was added to each tube to make a total volume 60 μl. cDNA samples were prepared in duplicate. Sample 1 was used immediately in RT-PCR protocol. Sample 2 was prepared for qPCR protocol by the addition of 150 μl of 95% ice-cold ethanol and stored at −20° C.
Microcentrifuge tubes from puReTaq™Ready-To-Go™ PCR Beads containing one PCR bead were labeled for each sample required. Added to the PCR bead were 17 μl of RNase-free DEPC treated water, 1 μl sense primer, 1 μl anti-sense primer and 5 μl of the cDNA solution. RT-PCR conditions were as follows: Hsp70 and β-actin, pre-treatment step, 94° C. for 1 minute, followed by denaturing at 92° C. for 1 minute, annealing at 60° C. for 1 minute and extension at 72° C. for 1 minute. Total cycles, 30, post-treatment was then carried out at 72° C. for 10 minutes. For Hsp32, pre-treatment step, 95° C. for 2 minutes, followed by denaturing at 94° C. for 30 seconds, annealing at 58° C. for 1 minute and extension at 72° C. for 1 minute. Total cycles 45, post treatment was then carried out at 72° C. for 10 minutes. Following RT-PCR, samples were stored at −20° C.
Amplification products were separated on a 1.8% agarose gel (m/v) in TAE buffer. The size of the PCR products was determined by comparison to DNA fragments of a well-defined size; therefore, 5 μl of the DNA Ladder was carefully pipetted into the first well of the gel. Successive 10 μl of each PCR sample was then pipetted into subsequent wells on the agarose gel. The gel was connected to the Power Pack and run at 100V for 30 minutes.
Gels were visualised on a UV Transilluminator. Photographs were stored using a Kodak Digital camera system fitted with a UV filter set connected to a PC. Images were then transferred to the Kodak ID gel imaging system. Densitometry was performed on each gene expression band using PSP™ v10 running under Windows XP®.
Experiments were conducted using Hsp32 and Hsp 70 gene expression as the basis for study. […] (all treatments for 2 hours).

SK-HEP-1 cells [3] = settings: human, 2 h
Procedure: Cell viability was determined by MTS® assay. […] Cell viability was determined by MTS® assay.

Hsp70 = settings: SK-HEP-1; homocysteine 30 μM, folate 30 μM (2 hr), quercitin 15 μM
Procedure: as §1, §2, §3
A reaction mixture was prepared in individual microcentrifuge tubes containing 2 cDNA synthesis beads, 32 μl of the mRNA solution and 1 μl of pd(N)6. This mixture was incubated at 37° C. in a water bath for 60 minutes. After incubation, 27 μl of RNase-free DEPC treated water was added to each tube to make a total volume 60 μl. cDNA samples were prepared in duplicate. Sample 1 was used immediately in RT-PCR protocol.
Microcentrifuge tubes from puReTaq™Ready-To-Go™ PCR Beads containing one PCR bead were labeled for each sample required. Added to the PCR bead were 17 μl of RNase-free DEPC treated water, 1 μl sense primer, 1 μl anti-sense primer and 5 μl of the cDNA solution. RT-PCR conditions were as follows: Hsp70 and β-actin, pre-treatment step, 94° C. for 1 minute, followed by denaturing at 92° C. for 1 minute, annealing at 60° C. for 1 minute and extension at 72° C. for 1 minute. Total cycles, 30, post-treatment was then carried out at 72° C. for 10 minutes. […]
The size of the PCR products was determined by comparison to DNA fragments of a well-defined size; therefore, 5 μl of the DNA Ladder was carefully pipetted into the first well of the gel. […]

SK-HEP-1 cells [4] = assay: Protection of endothelial cells from H2O2-induced cell death (MTS assay); assay type: cell-based, Human; settings: 2 hours pre-incubation, then 25 μM H2O2 24 hours
Procedure: The effect of increasing concentrations of NACCbl and GSCbl to protect endothelial cells from the effect of H2O2 was assessed. […] Cell viability was determined by MTS® assay. […] Cell viability was determined by MTS® assay. […] Cell viability was determined by MTS® assay.

methionine synthase = biological target: T1, methionine synthase (Oryctolagus cuniculus, UniProt G1SXW3); settings: rabbit spleen extracts; cited from earlier work
T1 construct: methionine synthase activity in rabbit spleen extracts; from tissue; host or cells: rabbit spleen extracts

SK-HEP-1 cells [5] = assay: Effect of high concentrations of NACCbl and GSCbl on SK-HEP-1 cells (MTS assay); assay type: cell-based, Human; set-up: cell viability (MTS), raw readings (FIG. 13): reference not given here; settings: 24 hours; for cell viability (MTS), raw readings (FIG. 13): 3 replicates
[6] = Decomposition of thiolatocobalamins in PBS at 37° C. monitored by UV/Vis spectrophotometry; assay type: physicochemical; settings: decomposition in PBS at 37° C.
Procedure: The decomposition of GSCbl, NACCbl, and HcyCbl in PBS at 37° C. was monitored by UV/Vis spectrophotometry.

SK-HEP-1 cells [7] = assay: Protection from apoptosis induced by homocysteine (Caspase-3 activity); assay type: cell-based, Human; settings: 30 μM pre-treatment two hours, then 30 μM homocysteine two hours
Procedure: Caspase 3 is activated when cells undergo apoptosis. Caspase-3 assay is a standard for apoptosis assay. Homocysteine is a known inducer of apoptosis. Cells were cultured in 96-well plates for 24 hours and then treated with reagents under test conditions. Cytotoxic agents, H2O2 and etoposide were added to negative control wells. The assay was performed according to the manufacturer's protocol, as follows: Cells were re-suspended in 100 μl of clear media and 50 μl of Caspase-3 substrate solution was immediately added to each test well. […] Cell viability was determined by MTS® assay. […] Cell viability was determined by MTS® assay.

T1 sequence (G1SXW3 1-1218): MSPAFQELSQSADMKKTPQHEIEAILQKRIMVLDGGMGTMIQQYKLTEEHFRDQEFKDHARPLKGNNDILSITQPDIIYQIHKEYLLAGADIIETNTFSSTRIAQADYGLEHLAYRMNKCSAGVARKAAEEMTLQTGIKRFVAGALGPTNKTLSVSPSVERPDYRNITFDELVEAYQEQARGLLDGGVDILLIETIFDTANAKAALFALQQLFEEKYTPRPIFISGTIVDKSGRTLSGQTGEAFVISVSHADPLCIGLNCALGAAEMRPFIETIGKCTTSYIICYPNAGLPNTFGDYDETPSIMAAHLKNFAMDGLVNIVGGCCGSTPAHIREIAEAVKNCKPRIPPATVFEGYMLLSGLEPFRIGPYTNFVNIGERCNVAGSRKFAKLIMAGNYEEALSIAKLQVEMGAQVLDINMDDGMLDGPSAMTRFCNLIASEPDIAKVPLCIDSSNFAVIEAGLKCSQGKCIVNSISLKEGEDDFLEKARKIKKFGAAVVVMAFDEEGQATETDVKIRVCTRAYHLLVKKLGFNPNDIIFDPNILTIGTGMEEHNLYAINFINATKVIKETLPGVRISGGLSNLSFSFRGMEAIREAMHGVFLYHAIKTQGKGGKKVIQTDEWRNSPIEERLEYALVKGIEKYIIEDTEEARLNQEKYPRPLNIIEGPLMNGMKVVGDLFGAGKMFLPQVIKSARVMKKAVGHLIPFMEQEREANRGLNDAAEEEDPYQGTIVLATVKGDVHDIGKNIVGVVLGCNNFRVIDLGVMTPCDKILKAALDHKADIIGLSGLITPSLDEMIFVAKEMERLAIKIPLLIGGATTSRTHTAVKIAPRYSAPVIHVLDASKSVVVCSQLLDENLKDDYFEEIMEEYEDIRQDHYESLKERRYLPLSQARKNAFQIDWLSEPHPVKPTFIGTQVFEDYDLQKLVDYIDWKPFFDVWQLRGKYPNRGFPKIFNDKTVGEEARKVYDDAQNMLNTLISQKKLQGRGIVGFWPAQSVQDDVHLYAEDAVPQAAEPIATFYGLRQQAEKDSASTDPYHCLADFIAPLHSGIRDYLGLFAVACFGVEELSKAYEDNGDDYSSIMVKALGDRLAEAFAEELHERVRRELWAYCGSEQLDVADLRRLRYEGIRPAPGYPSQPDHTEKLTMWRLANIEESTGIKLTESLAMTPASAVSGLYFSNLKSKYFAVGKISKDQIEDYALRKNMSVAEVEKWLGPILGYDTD

SMILES: NC(CCS)C(=O)O (racemic) [Homocysteine, DL-Homocysteine]
- cell viability (MTS), raw readings (FIG. 11) (SK-HEP-1 cells [1]; Hcy 25 (μM) two hours): 0.74
- cell viability (MTS), raw readings (FIG. 11) (SK-HEP-1 cells [1]; Hcy 50 (μM) two hours): 0.77
- cell viability (MTS), raw readings (FIG. 11) (SK-HEP-1 cells [1]; Hcy 100 (μM) two hours): 0.51
- cell viability (MTS), raw readings (FIG. 11) (SK-HEP-1 cells [1]; Hcy 200 (μM) two hours): 0.33 and 0.39
- Absorbance at 490 nm, Mean (n = 6) (SK-HEP-1 cells [2]; Conc. Hcy 200.000 (μM), NACCbl 30 μM, NAC 75 μM): 0.360
- normalized cell viability (MTS), percent, mean of 6 (SK-HEP-1 cells [2]; Conc. Hcy 200.000, NACCbl 30 μM, NAC 75 μM): −0.033
- Absorbance at 490 nm (n = 6) (SK-HEP-1 cells [2]; Conc. of Hcy 25.000, NACCbl 30 μM, NAC 75 μM): 0.740
- Absorbance at 490 nm (n = 6) (SK-HEP-1 cells [2]; Conc. of Hcy 50.000, NACCbl 30 μM, NAC 75 μM): 0.770
- Absorbance at 490 nm (n = 6) (SK-HEP-1 cells [2]; Conc. of Hcy 100.000, NACCbl 30 μM, NAC 75 μM): 0.510
- Absorbance at 490 nm (n = 6) (SK-HEP-1 cells [2]; Conc. of Hcy 200.000, NACCbl 30 μM, NAC 75 μM): 0.330 and 0.390
- effect on Hsp32 gene expression (Hsp32): increase in expression
- concentration achieving greater than 90% death (SK-HEP-1 cells [3]): 25 µM
- concentration that killed cells (p<0.001) (SK-HEP-1 cells [3]): ≥ 5 µM
- effect on Hsp70 gene expression (Hsp70): increase in expression

SMILES: C/C1=C2N=C(/C=C3N=C(/C(C)=C4\[N-]C(C(CC(N)=O)C4(C)CCC(=O)NCC(C)OP(=O)([O-])OC4C(CO)OC(n5cnc6cc(C)c(C)cc65)C4O)C4(C)N=C1C(CCC(N)=O)C4(C)CC(N)=O)C(CCC(N)=O)C\3(C)C)C(CCC(N)=O)C/2(C)CC(N)=O.NC(CCC(=O)NC(C[S-])C(=O)NCC(=O)O)C(=O)O.[Co+3] (stereo not drawn) [GSCbl, Glutathionylcobalamin, reference compound]
- concentration required to achieve >80% survival (SK-HEP-1 cells [4]): 100 µM
- promotion of methionine synthase activity (methionine synthase): more active than other cobalamins in promoting methionine synthase activity
- cell death compared with NACCbl (SK-HEP-1 cells [5]; above 0.2 mM concentration): caused greater cell death than NACCbl
- cell viability (MTS), raw readings (FIG. 13) (SK-HEP-1 cells [5]; compound conc. 0.61 (μM scale)): 2.554 and 2.376 and 2.53
- cell viability (MTS), raw readings (FIG. 13) (SK-HEP-1 cells [5]; compound conc. 1.22 (μM scale)): 2.347 and 2.433 and 2.503
- cell viability (MTS), raw readings (FIG. 13) (SK-HEP-1 cells [5]; compound conc. 2.441 (μM scale)): 2.527 and 2.434 and 2.46
- cell viability (MTS), raw readings (FIG. 13) (SK-HEP-1 cells [5]; compound conc. 4.882 (μM scale)): 2.543 and 2.528 and 2.519
- cell viability (MTS), raw readings (FIG. 13) (SK-HEP-1 cells [5]; compound conc. 9.765 (μM scale)): 2.532 and 2.476 and 2.42
- cell viability (MTS), raw readings (FIG. 13) (SK-HEP-1 cells [5]; compound conc. 19.531 (μM scale)): 2.553 and 2.476 and 2.42
- cell viability (MTS), raw readings (FIG. 13) (SK-HEP-1 cells [5]; compound conc. 39.062 (μM scale)): 2.492 and 2.484 and 2.468
- cell viability (MTS), raw readings (FIG. 13) (SK-HEP-1 cells [5]; compound conc. 78.125 (μM scale)): 2.444 and 2.406 and 2.402
- cell viability (MTS), raw readings (FIG. 13) (SK-HEP-1 cells [5]; compound conc. 156.25 (μM scale)): 2.407 and 2.37 and 2.318
- cell viability (MTS), raw readings (FIG. 13) (SK-HEP-1 cells [5]; compound conc. 312.5 (μM scale)): 2.306 and 2.204 and 2.138
- cell viability (MTS), raw readings (FIG. 13) (SK-HEP-1 cells [5]; compound conc. 625 (μM scale)): 2.197 and 1.912 and 1.787
- cell viability (MTS), raw readings (FIG. 13) (SK-HEP-1 cells [5]; compound conc. 1250 (μM scale)): 1.973 and 1.846 and 1.71
- cell viability (MTS), raw readings (FIG. 13) (SK-HEP-1 cells [5]; compound conc. 2500 (μM scale)): 1.775 and 1.81 and 1.896
- cell viability (MTS), raw readings (FIG. 13) (SK-HEP-1 cells [5]; compound conc. 5000 (μM scale)): 1.728 and 1.67 and 1.623
- cell viability (MTS), raw readings (FIG. 13) (SK-HEP-1 cells [5]; compound conc. 10000 (= 10 mM)): 1.322 and 1.342 and 1.366
- survival (SK-HEP-1 cells [2]; 30 μM cobalamin pre-incubation two hours, then 50 μM homocysteine two hours): ~60%
- concentration required for >80% survival protection (SK-HEP-1 cells [2]; 2 hours pre-incubation, then 30 μM homocysteine 24 hours): 50 µM
- protection against homocysteine-induced damage compared with free thiols (SK-HEP-1 cells [2]; Hcy 30 μM, NAC 45, GSH 100, NACCbl 12.5, GSCbl 15 μM, with or without folate 25 μM): superior to the free thiols
- effect on Hsp32 gene expression (Hsp32): induce Hsp32
- t1/2 [6]: No decomposition within 20 hours
- protection against apoptosis induced by homocysteine (SK-HEP-1 cells [7]): total protection

SMILES: OO [H2O2, Hydrogen peroxide]
- concentration achieving greater than 90% death (SK-HEP-1 cells [3]): 12.5 µM
- concentration sufficient to kill cultured endothelial cells (P<0.001) (SK-HEP-1 cells [3]): ≥ 3 μm

SMILES: CC1=C2N=C(C=C3N=C(C(C)=C4[N-]C(C(CC(N)=O)C4(C)CCC(=O)NCC(C)OP(=O)([O-])OC4C(CO)OC(n5cnc6cc(C)c(C)cc65)C4O)C4(C)N=C1C(CCC(N)=O)C4(C)CC(N)=O)C(CCC(N)=O)C3(C)C)C(CCC(N)=O)C2(C)CC(N)=O.NC(CC[S-])C(=O)O.[Co+3] [HcyCbl, D,L-homocysteinyl-cobalamin]
- t1/2 [6]: 6.6 h

SMILES: CC(=O)N[C@@H](CS)C(=O)O [NAC, N-Acetyl-L-Cysteine, reference compound]
- Absorbance at 490 nm, Mean (n = 6) (SK-HEP-1 cells [2]; Conc. Hcy 3.125 (μM), NACCbl 30 μM, NAC 75 μM): 1.897

SMILES: O.O.O=c1c(O)c(-c2ccc(O)c(O)c2)oc2cc(O)cc(O)c12 [Quercitin, 2-(3,4-Dihydroxyphenyl)-3,5,7-trihydroxy-4H-1-benzopyran-4-one dihydrate]
- effect on Hsp32 gene expression (Hsp32): does not inhibit Hsp32 gene expression
- effect on Hsp70 gene expression (Hsp70): inhibits Hsp70 gene expression

SMILES: C=CC1=C(C)c2cc3[n-]c(cc4[n-]c(cc5nc(cc1n2)C(C)=C5C=C)c(C)c4CCC(=O)O)c(CCC(=O)O)c3C.[Cl-].[Cl-].[Sn+4] [Sn (IX) protoporphyrin, 8,13-Bis(vinyl)-3,7,12,17-tetramethyl-21H,23H-porphine-2,18dipropionic acid tin(IV) dichloride]
- effect on Hsp32 gene expression (Hsp32): inhibited

SMILES: CN1c2c(nc(N)[nH]c2=O)NC[C@@H]1CNc1ccc(C(=O)N[C@@H](CCC(=O)O)C(=O)O)cc1 [folate, 5-Methyltetrahydrofolic acid disodium salt]
- effect on Hsp32 gene expression (Hsp32): increase in expression
- protection against apoptosis induced by homocysteine (SK-HEP-1 cells [7]): partial protection
- effect on Hsp70 gene expression (Hsp70): increase in expression
